Tested on: Hormone-independent human prostatic cancer PC-3 strain cells
Experiment: Tumor growth inhibitory activity against subcutaneously transplanted PC-3 tumors in Balb/c nu/nu mice (Experiments 1 and 2)
Assay type: in vivo
Settings: one-week intervals from 17th day; for Tumor size gain (mm³) mean±SD: Experiment 1, s.c. PC-3, Compound A 100 mg/kg s.c. (maltosyl-β-cyclodextrin inclusion compound), gain over size at first administration; for Tumor size ratio (T/C %): treated vs control group; for Tumor size gain (mm³) means±SD: Experiment 2, s.c. PC-3, Compound A 100 mg/kg s.c. (maltosyl-β-cyclodextrin inclusion compound)
Protocol: Hormone-independent human prostatic cancer PC-3 strain cells (hereinafter abbreviated as PC-3 cells) subcultured in vitro using a petri dish for tissue culture were removed from the dish wall by using 0.25% trypsin. The cells thus obtained were rinsed with Ham F-12K medium containing 10% serum and suspended in PBS (phosphate-buffered saline) so that the concentration of the cells became 3 x 10⁷/ml, and 100 µl of the resulting suspension was transplanted to the central part of the right side of the abdomens of Balb/c nu/nu mice (9 weeks old, male) with an injection syringe (25G needle). The tumor size was determined on the 17th day. The mice were divided into groups so that the mean tumor size of each groups was 96 to 97 mm³. Then administration of the drug prepared by the following method was started. The tumor size was determined with a caliper in terms of the major axis (a) and minor axis (b), and calculated from the following formula: 0.5 x a x b².
A 5% glucose solution was added to an inclusion compound of Compound A and maltosyl-β-cyclodextrin obtained in Reference Example 1 to adjust a dosage volume to 10 µl/g body weight of each mouse, and the resulting solution was administered to dorsal subcutaneous parts of mice.
The injection Randa (trade name, manufactured by Nippon Kayaku K.K., Japan) was used as cisplatin, dissolved in saline, adjusted to a dosage volume of 10 µl/g body weight of each mouse, and intraperitoneally administered to mice.
In the case of administration of Compound A alone and cisplatin alone, the first administration was carried out on the 17th day after the transplantation, and thereafter administrations were carried out at one-week intervals. In the case of concomitant administration of Compound A and cisplatin, cisplatin was administered on the 17th day after the transplantation, and Compound A was administered on the 21th day after the transplantation. Thereafter, each drug was administered at one-week intervals.
Tumor growth inhibitory activity was evaluated on the 49th day after the transplantation as follows. Each tumor size was determined on the 49th day, the tumor size on the day of the first administration was subtracted from the size on the 49th day, and the ratio (T/C%) of the tumor size of the drug administration group (T) to that of the control group (C) was calculated. The dose of the drug is indicated in terms of the weight of the drug (mg/kg body weight) per administration.
Mice bearing PC-3 cancer cells were prepared according to the same manner as that in Experiment 1. The tumor size was determined on the 17th day after the transplantation. Mice were divided into groups so that the average tumor size of each group was 108 to 109 mm³. Then drug administration was started. Preparation of the drug, determination of the tumor size, evaluation of tumor growth inhibitory activity, etc., were carried out according to the methods of Experiment 1.
In the case of administration of Compound A alone and cisplatin alone, the first administration was carried out on the 17th day after the transplantation, and thereafter administrations were carried out at one-week intervals.
The following three combinations of the drugs were administered. Cisplatin and Compound A were administered on the 17th day and 21th day after the transplantation, respectively, and thereafter each drug was administered at one-week intervals. These administrations are hereinafter referred to as Combination 1. Compound A and cisplatin were administered on the 17th day and 21th day after the transplantation, respectively, and thereafter each drug was administered at one-week intervals. These administrations are hereinafter referred to as Combination 2. Compound A and cisplatin were administered simultaneously on the 17th day after the transplantation, and thereafter each drug was administered at on-week intervals. These administrations are hereinafter referred to as Combination 3. […]

[1] = cisplatin 4 mg/kg i.p., evaluated 49th day
[2] = Experiment 1, s.c. PC-3, Compound A 100 mg/kg s.c., cisplatin 4 mg/kg i.p., evaluated 49th day
[3] = cisplatin 5 mg/kg i.p., evaluated 42th day
[4] = Experiment 2, s.c. PC-3, Compound A 100 mg/kg s.c., cisplatin 5 mg/kg i.p., evaluated 42th day

With “6-O-(N-chloroacetylcarbamoyl)fumagillol [Compound A]” the “Tumor size gain (mm³) mean±SD” value [1] was 591±242 mm³, the “Tumor size ratio (T/C %)” value [2] was 49% and the “Tumor size gain (mm³) means±SD” value [3] was 400±126 mm³. For the same molecule, the “Tumor size ratio (T/C %)” value [4] was 30%.

With `N.N.[Cl][Pt][Cl]` [Cisplatin, cisplatin] the “Tumor size gain (mm³) mean±SD” value [1] was 230±182 mm³, the “Tumor size ratio (T/C %)” value [2] was 19% and the “Tumor size gain (mm³) means±SD” value [3] was 345±163 mm³. The “Tumor size ratio (T/C %)” value [4] was 26%.

Reference: patent EP0658342A1, “Antineoplastic pharmaceutical composition containing a fumagillol derivative” (Takeda Chemical Industries, Ltd., priority 1993, dated 1995)
